“Also recorded” adds a separate entry of the source.
Legend:
Type in all cases: in vivo, Sprague Dawley rats
[1] = Overall body weight of treated animals; conditions: lower doses of daunorubicin (2 mg/kg and 5 mg/kg i.p.)
[2] = tested on: pulmonary artery smooth muscle cells; experiment: Apoptosis of pulmonary vascular cells by TUNEL method in lungs of treated rats; conditions: daunorubicin 20 mg/kg i.p.
Description: All animal studies were approved by the Georgetown University Animal Care and Use Committee. Adult Sprague Dawley rats (200-250 g) were placed in specialized cages connected to the OxyCycler Oxygen Profile Controller (BioSpherix, Redfield, N.Y.) which precisely controls the oxygen and nitrogen contents. Animals were subjected to hypoxic gas (10% O2, balance N2). […] Normoxia control animals are subjected to the same conditions except that they were exposed to ambient O2. All animals were fed normal rat chow during treatment and used in accordance with institutional guidelines. […]
(§1) As an indication of the development of pulmonary hypertension, right ventricular hypertrophy was estimated by calculating RV/(LV+S), where RV is the mass of right ventricle, LV is the mass of left ventricle and S is the mass of septum. Right ventricular pressure was measured by inserting a 1.4 F Millar Catheter into the right ventricle at the base of apex using PowerLab 8/30 High Performance Data Acquisition System with Chart Pro in anesthetized and ventilated animals. Pulmonary arterial wall thickening was assessed histologically in hematoxylin and eosin stained lungs. Apoptosis of pulmonary vascular cells was monitored using terminal deoxynucleotidyl transferase dUTP nick end labeling (TUNEL) method.

[3] = tested on: rats with hypoxia-induced pulmonary hypertension; experiment: Pulmonary arterial wall thickening assessed histologically (H&E stained lungs) in chronic hypoxia rats; conditions: vs saline
Description: (§2) All animal studies were approved by the Georgetown University Animal Care and Use Committee. Adult Sprague Dawley rats (200-250 g) were placed in specialized cages connected to the OxyCycler Oxygen Profile Controller (BioSpherix, Redfield, N.Y.) which precisely controls the oxygen and nitrogen contents. Animals were subjected to hypoxic gas (10% O2, balance N2). […] Normoxia control animals are subjected to the same conditions except that they were exposed to ambient O2. All animals were fed normal rat chow during treatment and used in accordance with institutional guidelines.
(§3) After 2-weeks of hypoxia or normoxia treatment, animals were injected intraperitoneally with saline or daunorubicin (20 mg/kg body weight; Sigma-Aldrich, St. Louise, Mo.). After injection, animals were placed back in hypoxia or normoxia condition for 3 days.
as §1
(§4) Comparisons between the 2 groups were analyzed using a two-tailed Student's t test, and comparisons between 3 or more groups were analyzed by ANOVA with a Student-Newman-Keuls post-hoc test. p<0.05 was considered to be significant. […]
(§5) Comparisons between the 2 groups (2 mg/kg vs. control, or 5 mg/kg vs. control) were analyzed using a two-tailed Student's t test, and comparisons between 3 or more groups were analyzed by ANOVA with a Student-Newman-Keuls post-hoc test. p<0.05 was considered to be significant.

[4] = tested on: normal animals without pulmonary hypertension; experiment: Pulmonary vascular wall thickness (H&E stained lungs) in normoxia control rats
Description: as §2, §3, §1, §4, §5

Q: For `COc1cccc2c1C(=O)c1c(O)c3c(c(O)c1C2=O)C[C@@](O)(C(C)=O)C[C@@H]3O[C@H]1C[C@H](N)[C@H](O)[C@H](C)O1` [daunorubicin], which “overall body weight of the animals” value [1] is on record?
A: not significantly affecting the overall body weight; also recorded: do not significantly impact the overall body weight

Q: And the “TUNEL-positive (apoptotic) cells in pulmonary vascular walls” value ([2]; hypoxia-exposed rats, saline controls showed none)?
A: induction of apoptosis in pulmonary vascular walls; also recorded: presented TUNEL-positive cells

Q: And the “selectivity of apoptosis induction: thickened vs normal pulmonary vessels” value ([2]; hypoxia rats (FIG. 3A) vs normoxia rats (FIG. 3B))?
A: can selectively kill pulmonary artery smooth muscle cells involved in thickened vascular walls

Q: What about the “hypoxia-induced pulmonary vascular wall thickening” value ([3]; daunorubicin 2 mg/kg i.p. after 2 weeks hypoxia) of the same compound?
A: significantly reducing hypoxia-induced wall thickening; also recorded: significantly reduced hypoxia-induced wall thickening

Q: What about the “hypoxia-induced pulmonary vascular wall thickening” value ([3]; daunorubicin 5 mg/kg i.p. after 2 weeks hypoxia) of the same compound?
A: significantly reducing hypoxia-induced wall thickening; also recorded: significantly reduced hypoxia-induced wall thickening

Q: And the “hypoxia-induced pulmonary vascular wall thickening” value ([3]; daunorubicin 20 mg/kg i.p. after 2 weeks 10% O2 hypoxia, then 3 more days hypoxia, P<0.05)?
A: reduced thickening of pulmonary vascular walls; also recorded: significantly reduced this hypoxia-induced wall thickening

Q: And the “thickness of the vascular walls in normal animals” value (from here on “thickness of the vascular walls”) ([4]; daunorubicin 2 mg/kg i.p.)?
A: did not affect the thickness of the vascular walls

Q: What about the “thickness of the vascular walls” value ([4]; daunorubicin 5 mg/kg i.p.) of the same compound?
A: did not affect the thickness of the vascular walls

Q: And the “thickness of the vascular walls” value ([4]; daunorubicin 20 mg/kg i.p.)?
A: did not affect the thickness of the vascular walls
